# Data published in patent US8455665B2, “3-phenoxymethylpyrrolidine compounds” (Theravance, Inc., priority 2009, dated 2013).
# Experiments:
# SERT [1] = target: T1, SERT (Homo sapiens, UniProt P31645); test: fluorescence-based serotonin uptake assay (Tsuruda et al. 2010); assay type: cell-based; conditions: serotonin reuptake inhibition, fluorescence-based assay (data indicated by an asterisk); read-out: SERT pIC50 (converted)
# Target sequence in this assay (P31645 whole entry, species assumed): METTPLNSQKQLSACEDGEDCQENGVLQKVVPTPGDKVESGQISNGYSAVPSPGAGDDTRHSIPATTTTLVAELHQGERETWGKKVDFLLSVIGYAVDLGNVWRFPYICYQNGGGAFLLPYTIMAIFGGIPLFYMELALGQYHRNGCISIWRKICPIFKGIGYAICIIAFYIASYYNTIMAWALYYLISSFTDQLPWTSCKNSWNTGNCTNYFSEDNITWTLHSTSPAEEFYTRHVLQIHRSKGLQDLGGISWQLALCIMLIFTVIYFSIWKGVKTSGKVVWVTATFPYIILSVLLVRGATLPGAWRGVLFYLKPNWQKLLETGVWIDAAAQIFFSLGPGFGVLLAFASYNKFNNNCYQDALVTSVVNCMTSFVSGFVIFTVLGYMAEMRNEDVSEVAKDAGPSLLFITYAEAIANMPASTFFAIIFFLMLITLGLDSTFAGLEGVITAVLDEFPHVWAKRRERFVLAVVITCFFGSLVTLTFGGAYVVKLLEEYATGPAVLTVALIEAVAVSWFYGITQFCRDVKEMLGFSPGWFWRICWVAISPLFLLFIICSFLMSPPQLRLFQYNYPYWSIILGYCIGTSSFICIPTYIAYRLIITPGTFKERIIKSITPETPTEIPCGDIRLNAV
# NET [2] = target: T2, NET (Homo sapiens, UniProt P23975); test: fluorescence-based norepinephrine uptake assay (Tsuruda et al. 2010); assay type: cell-based; conditions: norepinephrine reuptake inhibition, fluorescence-based assay (data indicated by an asterisk); read-out: NET pIC50 (converted)
# T2 sequence (P23975 whole entry): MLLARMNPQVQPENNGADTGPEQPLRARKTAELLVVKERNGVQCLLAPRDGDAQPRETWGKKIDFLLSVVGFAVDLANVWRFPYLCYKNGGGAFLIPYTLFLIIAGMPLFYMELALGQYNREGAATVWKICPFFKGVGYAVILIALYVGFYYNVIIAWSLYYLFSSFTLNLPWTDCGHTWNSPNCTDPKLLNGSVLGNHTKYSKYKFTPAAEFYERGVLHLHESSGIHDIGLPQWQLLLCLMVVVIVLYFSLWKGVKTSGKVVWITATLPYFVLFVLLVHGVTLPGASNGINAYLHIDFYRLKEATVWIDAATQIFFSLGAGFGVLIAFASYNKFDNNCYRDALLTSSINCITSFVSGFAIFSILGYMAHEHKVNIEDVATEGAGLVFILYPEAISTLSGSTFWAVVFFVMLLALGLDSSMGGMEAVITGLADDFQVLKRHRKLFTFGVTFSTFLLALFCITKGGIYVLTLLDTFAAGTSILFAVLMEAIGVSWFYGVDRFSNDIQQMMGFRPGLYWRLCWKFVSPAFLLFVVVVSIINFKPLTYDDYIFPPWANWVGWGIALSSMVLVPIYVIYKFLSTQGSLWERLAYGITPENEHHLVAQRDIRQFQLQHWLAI
# SERT [3] = target: T1, SERT; test: hSERT membrane radioligand binding assay (3H-citalopram); design: expressed in transfected cells; host or cells: HEK-293; conditions: hSERT membranes (HEK-293), 1.0 nM 3H-citalopram; read-out: SERT pKi (converted)
# Method: (§1) Membrane radioligand binding assays were used to measure inhibition of labeled ligand (^3H-citalopram or ^3H-nisoxetine or ^3H-WIN35428) binding to membranes prepared from cells expressing the respective human recombinant transporter (hSERT or hNET or hDAT) in order to determine the pKi values of test compounds at the transporters.
# (§2) Recombinant human embryonic kidney (HEK-293) derived cell lines stably transfected with hSERT or hNET, respectively, were grown in DMEM medium supplemented with 10% dialyzed FBS (for hSERT) or FBS (for hNET), 100 μg/ml penicillin, 100 μg/ml streptomycin, 2 mM L-glutamine and 250 μg/ml of the aminoglycoside antibiotic G418, in a 5% CO2 humidified incubator at 37° C. When cultures reached 80% confluence, the cells were washed thoroughly in PBS (without Ca^2+ and Mg^2+) and lifted with 5 mM EDTA in PBS. Cells were pelleted by centrifugation, resuspended in lysis buffer (10 mM Tris-HCl, pH7.5 containing 1 mM EDTA), homogenized, pelleted by centrifugation, then resuspended in 50 mM Tris-HCl, pH 7.5 and 10% sucrose at 4° C. Protein concentration of the membrane suspension was determined using a Bio-Rad Bradford Protein Assay kit. Membranes were snap frozen and stored at −80° C. Chinese hamster ovary membranes expressing hDAT (CHO-DAT) were purchased from PerkinElmer and stored at −80° C.
# (§3) Binding assays were performed in a 96-well assay plate in a total volume of 200 μl assay buffer (50 mM Tris-HCl, 120 mM NaCl, 5 mM KCl, pH 7.4) with 0.5, 1, and 3 μg membrane protein, for SERT, NET and DAT, respectively.
# (§4) Stock solutions (10 mM in DMSO) of test compound were prepared and serial dilutions made using Dilution Buffer (50 mM Tris-HCl, 120 mM NaCl, 5 mM KCl, pH 7.4, 0.1% BSA, 400 μM ascorbic acid). Non-specific radioligand binding was determined in the presence of 1 μM duloxetine, 1 μM desipramine or 10 μM GBR12909 (each in Dilution Buffer) for the hSERT, hNET or hDAT assays, respectively.
# (§5) Following a 60 minute incubation at 22° C. (or a period sufficient to reach equilibrium), the membranes were harvested by rapid filtration over a 96-well UniFilter GF/B plate, pretreated with 0.3% polyethyleneimine, and washed 6 times with […] (50 mM Tris-HCl, 0.9% NaCl, pH 7.5 at 4° C.). Plates were dried overnight at room temperature, approximately […] of MicroScint™-20 (Perkin Elmer) added and bound radioactivity quantitated via liquid scintillation spectroscopy. Inhibition curves and saturation isotherms were analyzed using GraphPad Prism Software package (GraphPad Software, Inc., San Diego, Calif.). IC50 values were generated from concentration response curves using the Sigmoidal Dose Response (variable slope) algorithm in Prism GraphPad. Kd and Bmax values for the radioligand were generated from saturation isotherms using the Saturation Binding Global Fit algorithm in Prism GraphPad. pKi (negative decadic logarithm of Ki) values for test compounds were calculated from the best-fit IC50 values, and the Kd value of the radioligand, using the Cheng-Prusoff equation (Cheng & Prusoff (1973) Biochem. Pharmacol. 22(23):3099-3108): Ki=IC50/(1+[L]/Kd), where [L]=concentration radioligand.
# Target sequence in this assay (P31645 whole entry): as the sequence (P31645 whole entry, species assumed) above
# NET [4] = target: T2, NET; test: hNET membrane radioligand binding assay (3H-nisoxetine); design: expressed in transfected cells; host or cells: HEK-293; conditions: hNET membranes (HEK-293), 1.0 nM 3H-nisoxetine; read-out: NET pKi (converted)
# Method: as §1, §2, §3, §4, §5
IC50 (SERT [1]),IC50 (NET [2]),Ki (SERT [3]),Ki (NET [4]),Compound
≤ 10 nM,≤ 1000 nM,≤ 10 nM,≤ 1000 nM,"CC(C)OC[C@H](Oc1ccc(Cl)cc1Cl)[C@@H]1CCNC1 [Example 9-22, (R)-3-[(R)-1-(2,4-Dichlorophenoxy)-2-isopropoxyethyl]pyrrolidine]"
≤ 100 nM,≤ 100 nM,≤ 10 nM,≤ 100 nM,"CC(C)OC[C@H](Oc1cccc(Cl)c1C(F)(F)F)[C@@H]1CCNC1 [Example 9-18, (R)-3-[(R)-1-(3-Chloro-2-trifluoromethylphenoxy)-2-isopropoxyethyl]pyrrolidine]"
≤ 100 nM,≤ 1000 nM,≤ 100 nM,≤ 10000 nM,"CC(C)OC[C@H](Oc1cccc(C(F)(F)F)c1)[C@@H]1CCNC1 [Example 9-2, (R)-3-[(R)-2-Isopropoxy-1-(3-trifluoromethylphenoxy)ethyl]pyrrolidine]"
≤ 10 nM,≤ 100 nM,≤ 10 nM,≤ 100 nM,"Cc1c(Cl)cccc1O[C@@H](COC(C)C)[C@@H]1CCNC1 [Example 9-14, (R)-3-[(R)-1-(3-Chloro-2-methylphenoxy)-2-isopropoxyethyl]pyrrolidine]"
≤ 1000 nM,≤ 100 nM,≤ 1000 nM,≤ 1000 nM,"CC(C)OC[C@H](Oc1c(Cl)cccc1Cl)[C@@H]1CCNC1 [Example 9-27, (R)-3-[(R)-1-(2,6-Dichlorophenoxy)-2-isopropoxyethyl]pyrrolidine]"
